Experimental data from patent US9266829B2, “Quinone compounds and their uses for the treatment of cancer” (Onco-NX Limited, priority 2012, dated 2016).
“Also recorded” adds a separate entry of the source.

How the values were obtained:
[1] = system: DT-diaphorase null MDA 468 cells; assay: Apoptosis by Annexin V binding, DT-diaphorase null MDA 468 cells; format: cell-based, human
Method: (§1) Based on the method described in Martin et al. (Journal of Experimental Medicine. 182, 1545-1556. 1995), the induction of apoptosis caused by the compounds of the present invention was determined.

NQ01 cells = assay: Combination index at IC50 with other anti-cancer agents in NQ01 cells; format: cell-based, human
esterases [2] = assay: Cell lysate esterase reaction, MDA NQ01 cell extract; format: in vitro ADME, human; conditions: human, MDA NQ01 cell line extract (cell lysate)
Text: (§2) The cleavage of Es5 by esterase and cell extracts and its activation were investigated.
(§3) The degradation of Es5 by esterases from cell lysate of the two cell lines MDA NQ01 and MDA468 was investigated.

MDA NQ01 cell extract = assay: as above; format: in vitro ADME, human
Text: as §2, §3

H460 NSCLC = assay: In vivo hollow fibre assay, H460; conditions: i.p. dosing days 3-6, nude mice
Method: (§4) The activity of Es5 (4.65) was evaluated in vivo against 3 cancer cell lines H460, MDA-MB-468-NQ01 and MDA-MB-468-MOCK using the in vivo hollow fibre assay (HFA), with fibres implanted at both intraperitoneal (i.p.) and subcutaneous (s.c.) sites. Es5 and the control agent Doxorubicin were administered as multiple doses by intraperitoneal injection (i.p.) on days 3, 4, 5 & 6 at 0.5 mg/kg/day and 2.5 mg/kg/day respectively.
(§5) Three human tumour cell lines were selected for analysis: H460 NSCLC (from ICT) and two breast carcinoma lines MDA-MB-468-NQ01 and MDA-MB-468-MOCK (both supplied by Onco-NX). Cells were cultured in RPMI 1640 cell culture medium supplemented with 1 mM sodium pyruvate, 2 mM L-glutamine and 10% foetal bovine serum (all from Sigma), and maintained as monolayer cultures at 37° C. in a humidified 5% CO2 environment.
(§6) Female Balb/C immunodeficient nude mice aged 6-8 weeks were used (Harlan UK, Blackthorn, UK). Mice were kept in cages housed in isolation cabinets in an air-conditioned room with regular alternating cycles of light and darkness. They received Teklad 2018 diet (Harlan, Blackthorn, UK) and water ad libitum. All animal procedures were carried out under a project licence issued by the UK Home Office and UKCCCR guidelines were followed throughout.
Cells were loaded into sterilised colour-coded PVDF Spectra/Por hollow fibres (HF) (Spectrum Medical Inc, Houston, Tex., USA). Briefly cells were harvested and resuspended in cell culture medium at the required cell density. This preparation was then loaded into the HF and the ends were clamped and heat-sealed. […]
(§7) Mice were sacrificed on day 7 post-implantation, fibres removed, and cell survival analysed using a modified MTT assay, comparing absorbances seen for the treated groups with the corresponding untreated control group. […]

esterases [3] = assay: Cell lysate esterase reaction, MDA468 cell extract; format: in vitro ADME, human; conditions: human, MDA468 cell extract (cell lysate)
Text: as §2, §3

MDA468 cell extract = assay: Cell lysate esterase reaction, MDA468 cell extract; format: in vitro ADME, human
Text: as §2, §3

porcine liver esterase = assay: Degradation by porcine liver esterase; format: in vitro ADME; conditions: in words
Text: as §2

esterase = assay: Degradation by porcine liver esterase; format: in vitro ADME; conditions: pig, porcine liver esterase
Text: as §2

physchem [4] = assay: physchem
physchem [5] = format: physicochemical
Method: The stability of esters and their hydrolysis products was measured in solution. (50 μM Es5 in Tris buffer (0.1 mol dm^−3) at pH 7.4). Samples were taken at timed intervals up to 24 hours and analysed by HPLC. The detection wavelength was 330 nm. Chromatographic analysis was carried out by isocratic elution with 30:70 MeOH: Tris buffer (0.1 mol dm^−3, pH 7.4), at 1 ml min^−1. The chromatographic separation of the drug was achieved using a Hypersil ODS column with 250 mm×4.6 mm I.D.

[6] = system: DT-diaphorase expressing cells; assay: Apoptosis by Annexin V binding, DT-diaphorase expressing cells; format: cell-based, human
Method: as §1

MDA468 = assay: IC50 by MTT assay on MDA468 cells; format: cell-based, human
[7] = system: DT-diaphorase null MDA468; assay: DNA damage, Comet assay, DT-diaphorase null MDA468 cells; format: cell-based, human
Method: DNA damage was measured using the Comet assay to investigate the effect of Es5 on the comet head and tail intensities following treatment of MDA468NQ01 and the DT-diaphorase null MDA468 cell lines. […] Without wishing to be bound by any particular theory, the inventors believe that this must arise by a different mechanism such as 2×one electron reductions, rather than the 2 electron reduction that occurs with DT-diaphorase.

MDA-MB-468-MOCK = assay: In vivo hollow fibre assay, MDA-MB-468-MOCK; conditions: fibres at i.p. site; i.p. dosing days 3-6; nude mice; p<0.01
Method: as §4, §5
Female Balb/C immunodeficient nude mice aged 6-8 weeks were used (Harlan UK, Blackthorn, UK). Mice were kept in cages housed in isolation cabinets in an air-conditioned room with regular alternating cycles of light and darkness. They received Teklad 2018 diet (Harlan, Blackthorn, UK) and water ad libitum. […]
as §7

serum esterase = assay: Degradation by serum esterase (hydrolysis in serum); format: in vitro ADME
Text: as §2

MDA-MB-468-NQ01 = assay: In vivo hollow fibre assay, MDA-MB-468-NQ01; design: species or system mice
Method: as §4, §5, §6
Cells were loaded into sterilised colour-coded PVDF Spectra/Por hollow fibres (HF) (Spectrum Medical Inc, Houston, Tex., USA). Briefly cells were harvested and resuspended in cell culture medium at the required cell density. This preparation was then loaded into the HF and the ends were clamped and heat-sealed. The HF was then cut into 1.5 cm lengths which were again heat-sealed at both ends, and then transferred to 6-well plates containing medium before implantation for the in vivo experiments, or were incubated at 37° C. in a humidified 5% CO2 environment for varying times before processing using the modified MTT assay as described below.
For the in vivo experiments, under brief inhalation anaesthesia (2% isoflurane), one loaded hollow fibre for each of the cell lines was transplanted intraperitoneally or subcutaneously on the dorsal flank of each mouse and the mice were allowed to recover. Each group consisted of 6 mice and the implantation day was termed ‘day 0’.
For assessment of the therapeutic response of Es5 (4.65), on days 3, 4, 5 & 6 mice were treated with Es5 (4.65) at 0.5 mg/kg/day or Doxorubicin at 2.5 mg/kg/day.
Mice were sacrificed on day 7 post-implantation, fibres removed, and cell survival analysed using a modified MTT assay, comparing absorbances seen for the treated groups with the corresponding untreated control group. Statistical analysis was carried out using a Student's t-test.

**Q.** With `CC(=O)OCCCC1=C(N2CC2)C(=O)C(C)=C(N2CC2)C1=O` [Es5, Acetic Acid 3-(2,5-bis-aziridin-1-yl-4-methyl-3,6-dioxo-cyclohexa-1,4-dienyl)-propyl ester] as the molecule, how does the “apoptosis (Annexin V binding) at 2 hours” value ([1]; 2 hours) read?
**A.** no death is seen

**Q.** And the “apoptosis (Annexin V binding) after 4 hrs” value ([1]; after 4 hrs)?
**A.** reduced level of apoptosis

**Q.** What about the “Combination index at IC50 with ARA-C in NQ01 cells” value (NQ01 cells; with ARA-C) of the same molecule?
**A.** 1.22 (slight

**Q.** What about the “Combination index at IC50 with Cis-platinum in MDA NQ01” value (NQ01 cells) of the same molecule?
**A.** synergy

**Q.** And the “Combination index at IC50 with Cis-platinum in MDA NQ01” value (NQ01 cells; listed as Es5 (4.65))?
**A.** 0.674 (synergy)

**Q.** And the “Combination index at IC50 with Docetaxel in NQ01 cells” value (NQ01 cells)?
**A.** additive effect

**Q.** And the “Combination index at IC50 with Docetaxel in NQ01 cells” value (NQ01 cells; listed as Es5 (4.65))?
**A.** 0.964 (additive)

**Q.** And the “Combination index at IC50 with Epirubicin in NQ01 cells” value (NQ01 cells; with Epirubicin)?
**A.** 2.04 (antagonism)

**Q.** What about the “Combination Index at IC50 with Mitomycin C in NQ01 cells” value (NQ01 cells) of the same molecule?
**A.** additive effect

**Q.** And the “Combination Index at IC50 with Mitomycin C in NQ01 cells” value (NQ01 cells; listed as Es5 (4.65))?
**A.** 0.924 (additive)

**Q.** What about the “Combination index at IC50 with cobalt chloride in NQ01 cells” value (NQ01 cells) of the same molecule?
**A.** strong synergy

**Q.** And the “Combination index at IC50 with cobalt chloride in NQ01 cells” value (NQ01 cells; listed as Es5 (4.65))?
**A.** 0.54

**Q.** What about the half-life (esterases [2]; Degradation by MDA NQ01 cell extract, t1/2) of the same molecule?
**A.** 2.67 h

**Q.** What about the half-life (esterases [2]; room temperature, degraded to the alcohol 4.61, read-out: half-life in MDA NQ01 cell line extract) of the same molecule?
**A.** ~2.67 h

**Q.** And the “Degradation by MDA NQ01 cell extract, rate” value (MDA NQ01 cell extract; human, MDA NQ01 cell line extract (cell lysate))?
**A.** (11.25 nmoles/hr/10^6 nmoles/hr/10^6 cells

**Q.** And the “cleavage of the ester by MDA468 NQ01 cell extract” value (MDA NQ01 cell extract; in words)?
**A.** rapidly cleaved

**Q.** And the “cell survival compared to the untreated control, H460, i.p. site” value (H460 NSCLC; fibres at i.p. site, p<0.01)?
**A.** significant efficacy

**Q.** And the “cell survival compared to the untreated control, H460, s.c. site” value (H460 NSCLC; fibres at s.c. site)?
**A.** significant efficacy

**Q.** And the half-life (esterases [3])?
**A.** 4.67 h

**Q.** What about the “Degradation by MDA468 cell extract, rate” value (MDA468 cell extract; human, MDA468 cell extract (cell lysate)) of the same molecule?
**A.** (19.6 nmoles/hr/10^6 nmoles/hr/10^6 cells

**Q.** And the “cleavage of the ester by MDA 468 cell extract” value (MDA468 cell extract; in words, compared with MDA468 NQ01 extract)?
**A.** much reduced rate; also recorded: appreciably lower rate

**Q.** What about the “cleavage by porcine esterase to hydrolysis product” value (porcine liver esterase) of the same molecule?
**A.** rapidly cleaved

**Q.** And the half-life (esterase)?
**A.** 1 min

**Q.** And the half-life (physchem [4])?
**A.** < 24 h

**Q.** What about the “more stable than other esters based on RH1” value (physchem [5]) of the same molecule?
**A.** > 20 times

**Q.** What about the half-life at 50 μM (physchem [5]; buffer, pH 7.4) of the same molecule?
**A.** > 24 h

**Q.** And the “time to induction of programmed cell death (Annexin V binding)” value [6]?
**A.** ≤ 2 h

**Q.** And the IC50 (MDA468; Homo sapiens)?
**A.** 25 nM

**Q.** What about the IC50 (MDA468; listed as Es5 (4.65)) of the same molecule?
**A.** 20 to 25 nM

**Q.** What about the “Comet assay tail intensity (DNA cross-linking)” value ([7]; DT-diaphorase deficient cell line, compared to H2O2 alone) of the same molecule?
**A.** did not reduce tail intensity

**Q.** And the “Comet assay, DNA cross-linking after 6 hours of incubation” value ([7]; DT-diaphorase null cell line, 6 hours)?
**A.** evidence of cross-linking

**Q.** What about the “cell survival compared to the untreated control, MDA-MB-468-MOCK, i.p. site” value (MDA-MB-468-MOCK) of the same molecule?
**A.** significant efficacy

**Q.** And the “Degradation by serum esterase, t90” value (serum esterase; T90 = time taken to degrade to 90% of starting concentration)?
**A.** t90 90 mins

**Q.** What about the half-life (serum esterase; serum, read-out: hydrolysis in serum, t1/2) of the same molecule?
**A.** 1.67 h

**Q.** What about the “cell survival compared to the untreated control, MDA-MB-468-NQ01, i.p. site” value (MDA-MB-468-NQ01; fibres at i.p. site, i.p. dosing days 3-6, nude mice, p<0.01) of the same molecule?
**A.** significant efficacy

**Q.** What about the “efficacy in the NQ01-expressing compared to the Mock MDA-MB-468 cell line” value (MDA-MB-468-NQ01; hollow fibre assay) of the same molecule?
**A.** improved efficacy
